We go through 8 compounds from patent publication US9844556B2, “Preventive/therapeutic method and preventive/therapeutic agent for complications after cataract surgery” (KOWA COMPANY, LTD., priority 2015, dated 2017).

One experiment has as its system myofibroblasts. Conditions: cited from earlier work.
Experiment [1] concerns Human lens epithelial cells (HLEpiC). In words: Inhibitory action on actin stress fiber formation (phalloidin staining, confocal microscopy). The class given is cell-based. Conditions: treated about an hour. Here is the method: Human lens epithelial cells (HLEpiC (ScienCell Research Laboratories)) were diluted with a medium (Epithelial Cell Medium (ScienCell Research Laboratories)), dispensed to each well of Poly-L-lysine (ScienCell Research Laboratories) coated Imaging Chamber CG at 100 μL/well (about 5000 cells/cm^2), and cultured in a carbon dioxide incubator (37° C., 5% CO2) until about 50% confluent. The medium was removed with vacuum suction and a test substance, a positive control, a comparative control, or the medium (control) at each concentration given below was added to each well at 300 μL/well:
Test substance: Ripasudil with a concentration of 10 μM, 100 μM or 1 mM,
Positive control: Cytochalasin D with a concentration of 2 μM,
These were treated in a carbon dioxide incubator (37° C., 5% CO2) for about an hour, and then washed once with the medium. 4% Paraformaldehyde Phosphate Buffer Solution (Wako Pure Chemical Industries, Ltd.) (hereinafter, referred to as a fixative solution) was added at 300 μL/well, and fixation was carried out at room temperature for 2 minutes. After washing with the medium, 0.5% Triton X-100 (Roche Diagnostics K.K.) was added at 300 μL/well, and penetrated at room temperature for 2 minutes. After washing with the medium, the fixative solution was added at 300 μL/well, and fixation was carried out at room temperature for 20 minutes.
Separately, 25 μL of 14 μM Actin-Stain™ 555 phalloidin (Cytoskeleton, Inc.) (hereinafter, referred to as Phalloidin) was added to 3475 μL of 10 mM phosphate buffered saline (Wako Pure Chemical Industries, Ltd.) to produce 100 nM Phalloidin.
This 100 nM Phalloidin was added to each well washed with the medium at 200 μL/well, and staining was carried out at room temperature in a dark place for about 60 minutes.
After washing with the medium, the chamber was removed, and […] Mounting Medium with DAPI (Vector Laboratories, Inc.) was dropped onto a cover glass with a few drops. A slide glass was placed thereon and this was left to stand at room temperature in a dark place for 30 minutes or more, and adhesion and nuclear staining were carried out and then observed by a confocal laser scanning microscope.

For experiment [2] the test system is unchanged. The experiment in a line: Reversibility of inhibition of actin stress fiber formation after removal. To be noted: recultured about 24 hours after removal. Format: cell-based. As to the method:
After removal of the test substance, positive control or comparative control in Example 1, the cells were recultured for about another 24 hours, treated in accordance with the operation in Example 1, and then observed by a confocal laser scanning microscope in the same manner as in Example 1 to observe the reversibility of actin stress fibers.

The test system of experiment [3] is HLEpiC. The experiment in a line: Determination of G-actin/F-actin ratio using G-Actin/F-Actin In Vivo Assay Kit. The class given is cell-based, human. Conditions: 2 μM, about an hour; control 1.16. Here is the method:
HLEpiC was diluted with a medium (Epithelial Cell Medium), and dispensed to a Poly-L-lysine coated T-75 flask at about 5000 cells/cm^2, and cultured in a carbon dioxide incubator (37° C., 5% CO2) until about 50% confluent. A test substance, a positive control or the medium (control) at each concentration given below was added to each flask at 20 mL.
(§1) Test substance: Ripasudil with a concentration of […], 100 μM or 1 mM,
Positive control: CD with a concentration of 2 μM, and
These were treated in a carbon dioxide incubator (37° C., 5% CO2) for about an hour.
To 20 mL of Lysis and F-actin stabilization buffer was added 200 μL of 100 mM ATP stock solution and 200 μL of 100× Protease inhibitor cocktail stock to produce LAS2 buffer, and this was incubated in a carbon dioxide incubator (37° C.) for about 30 minutes. Warmed LAS2 buffer was added at 2.5 mL to each flask in which the medium was removed with vacuum suction.
Next, adherent HLEpiC was completely scraped with a cell scraper and transferred with the LAS2 buffer to a conical tube, and HLEpiC was crushed with a micropipette (hereinafter, referred to as cell solution). This cell solution was incubated in a carbon dioxide incubator (37° C.) for about 10 minutes and then centrifuged for 10 minutes (2000 rpm, room temperature). The supernatant was dispensed into an ultracentrifugal tube at 1.8 mL and centrifuged for an hour with an ultracentrifuge (100,000× g, 37° C.). At this time, F-actin is precipitated and G-actin remains in the supernatant.
The supernatant was transferred to a conical tube while being careful not to suck F-actin precipitates.
To precipitates of each sample was added 1.8 mL of F-actin depolymerizing buffer, and this was incubated under ice-cold conditions for an hour to depolymerize actin.
From each supernatant sample and precipitate sample, 100 μL each was put in a 1.5 mL Eppendorf tube, and 25 μL of 5×SDS sample buffer was added and stirred.
Each sample was boiled in a boiling water bath for 5 minutes.
Each sample was subjected to SDS-polyacrylamide gel electrophoresis, followed by Western blotting.
Next, after treatment using a Western blotting detection reagent (ECL Select Western Blotting Detection Reagent, GE Healthcare Japan), proteins were detected using a Lumino image analyzer. The quantities of G-actin and F-actin were determined using an analysis software (ImageQuant TL, GE Healthcare Japan) and the G-actin/F-actin ratio was calculated.
The variation in the quantity of F-actin required to form actin stress fibers was evaluated by comparison with the G-actin/F-actin ratio of untreated (Control) cells.

In experiment [4] the test system is HLEpiC. In words: Inhibitory action on cell migration (Oris Cell Migration plate). Format: cell-based, human. Conditions: about 24 and 48 hours after treatment. As to the method: HLEpiC was diluted with a medium (Epithelial Cell Medium) and dispensed to Poly-L-lysine coated Oris™ Cell Migration 96 well plate, to which a stopper was firmly attached, at 50 μL/well (25000 cells/well) and cultured in a carbon dioxide incubator (37° C., 5% CO2) for 24 hours. The stopper was removed, and after brief washing with the medium, a solution obtained by adding 5 μL of 10 mM Cell Tracker Green Fluorescent Probe (Lonza Walkersville, Inc.) to 4995 μL of the medium was added at 100 μL/well, and the cells were stained in a carbon dioxide incubator (37° C., 5% CO2) for about 30 minutes. After brief washing with the medium, the medium was further added and the cells were cultured in a carbon dioxide incubator (37° C., 5% CO2) for about 30 minutes.
After brief washing with the medium, a test substance, a positive control, a comparative control or the medium (control) at each concentration given below was added at 100 μL/well.
as §1
Positive control: CD with a concentration of 2 μM,
These were cultured in a carbon dioxide incubator (37° C., 5% CO2). The state of HLEpiC in the Detection Zone in each sample was observed by a confocal laser scanning microscope about 24 hours after the treatment and 48 hours after the treatment.

Experiment [5] relates to HLEpiC. In words: Reversibility of inhibition of cell migration after removal. Format: cell-based, human. Conditions: for time after removal at which Detection Zone was filled with HLEpiC: then removal. As to the method: After the operation in Example 4, the test substance, the positive control, or the comparative control was removed, and after brief washing with the medium, the medium was added at 100 μL/well, and the cells were cultured in a carbon dioxide incubator (37° C., 5% CO2).

The test system of experiment [6] is hyalocyte-containing collagen gel. Conditions: cited from earlier work.
A further experiment concerns bovine lens cells. Conditions: cited from earlier work.
In experiment [7] the test system is Soemmerring's ring, posterior capsule opacification (PCO). To be noted: cited from earlier work.

Regarding `O=S(=O)(c1cccc2c(I)cccc12)N1CCCNCC1` [ML-7], the “transdifferentiation and contraction of myofibroblasts induced by TGF-β” value (from here on “transdifferentiation and contraction”) in the experiment with myofibroblasts is “inhibit the transdifferentiation and contraction”.
Take `C=C1[C@@H](C)[C@H]2[C@H](Cc3ccccc3)NC(=O)[C@]23[C@H](OC(C)=O)/C=C/[C@@](C)(O)C(=O)[C@@H](C)C/C=C/[C@H]3[C@@H]1O` [Cytochalasin D, reference compound]: the “actin stress fibers (observation)” value in experiment [1] (2 μM) was “significantly disappear”. In addition, the “reversibility of actin stress fibers” value in experiment [2] (2 μM) is reported as “recovered”. Also, in the experiment with HLEpiC [3], the G-actin/F-actin ratio came out at 25.03. Also, the “cell migration into Detection Zone (observation)” value with HLEpiC [4] (2 μM) is on record as “inhibitory action on cell migration was further recognized”. Also, in the experiment on HLEpiC [5] (2 μM treatment), the “time after removal at which Detection Zone was filled with HLEpiC” value was “about 48 hours”.
In the case of `Cc1cncc2cccc(S(=O)(=O)N3CCCNC[C@@H]3C)c12` [H-1152], the “transdifferentiation and contraction” value with myofibroblasts was “inhibit the transdifferentiation and contraction”.
Regarding `O=S(=O)(c1cccc2cnccc12)N1CCCNCC1` [fasudil], the “hyalocyte-containing collagen gel contraction” value in experiment [6] was “inhibits”.
For the compound `C[C@@H](N)[C@H]1CC[C@H](C(=O)Nc2ccncc2)CC1` [Y-27632, reference compound], the “actin stress fibers (observation)” value in [1] (1 mM) was “disappear”. Besides, the “reversibility of actin stress fibers” value in experiment [2] (1 mM) is given as “recovered”. The “cell migration into Detection Zone (observation)” value in the experiment with HLEpiC [4] (1 mM) is “inhibitory action on cell migration was also recognized”. Besides, the “state of Detection Zone about 48 hours after removal” value with HLEpiC [5] (1 mM treatment, about 48 hours after removal) is listed as “not filled with HLEpiC”. Further, the “time after removal at which Detection Zone was filled with HLEpiC” value in the experiment on HLEpiC [5] (1 mM treatment) was 116 h. Moreover, in the experiment on bovine lens cells, the “contraction induced by cytokines such as PDGF-BB and TGF-β2” value is “inhibited contraction”. Besides, the “transdifferentiation and contraction” value in the experiment with myofibroblasts is “inhibit the transdifferentiation and contraction”.
`CC1CNCCN1S(=O)(=O)c1cccc2cnccc12` (stereo not shown) [H-7]: in experiment [7], the “effect on posterior capsule opacification (PCO)” value is “ineffective” and the “resolving Soemmerring's ring” value was “effective”.
`O=c1[nH]ccc2c(S(=O)(=O)N3CCCNCC3)cccc12` [HF, Hydroxyfasudil]: the “contraction induced by cytokines such as PDGF-BB and TGF-β2” value with bovine lens cells is “inhibited contraction”.
With `O=S(=O)(c1cccc2cnccc12)N1CCCNCC1` [HA-1077], the “transdifferentiation and contraction” value with myofibroblasts was “inhibit the transdifferentiation and contraction”.
